Source: patent publication US20040146520A1, “Materials and methods relating to immune suppression” (priority 2001, published 2004)
Where a SMILES comes first, the peptide text is derived from it. The star is where a group is joined. Cbz = O=C(OCc1ccccc1)*; CH2F = FC*

How the values were obtained:
[1] = tested on: Flu-specific (MP58-66) CTL; assay: CTL apoptosis induced by peptide/MHC multimeric beads; assay type: cell-based, human; details: IL-2 20 U/ml, anti-CD28 1 μg/ml, z-VAD 10 μM; 12 hrs
CD8-associated p56lck = CD8-associated p56lck (Homo sapiens, UniProt P06239); details: cited from earlier work
A2+ B cell targets = assay: Gag-specific CTL assay, apoptosis of peptide-pulsed targets (Annexin-V); details: peptide-pulsed BCL, 12-hour incubation, FIG. 1b

Chain of CD8-associated p56lck (P06239 whole entry): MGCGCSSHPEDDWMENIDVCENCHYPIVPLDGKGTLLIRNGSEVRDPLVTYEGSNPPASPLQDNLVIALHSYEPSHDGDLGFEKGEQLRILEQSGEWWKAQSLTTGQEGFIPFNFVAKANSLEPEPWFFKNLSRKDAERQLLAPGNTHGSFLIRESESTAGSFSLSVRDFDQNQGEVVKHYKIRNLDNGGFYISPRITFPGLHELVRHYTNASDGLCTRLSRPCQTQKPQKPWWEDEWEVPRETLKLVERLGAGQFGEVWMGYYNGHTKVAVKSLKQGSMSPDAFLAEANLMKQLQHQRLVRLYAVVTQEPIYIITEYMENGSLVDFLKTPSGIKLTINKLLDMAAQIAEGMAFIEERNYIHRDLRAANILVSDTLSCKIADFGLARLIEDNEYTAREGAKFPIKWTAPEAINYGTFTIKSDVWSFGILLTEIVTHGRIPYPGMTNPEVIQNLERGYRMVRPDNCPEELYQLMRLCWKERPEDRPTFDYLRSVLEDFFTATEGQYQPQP

CC(NC(=O)C(NC(=O)OCc1ccccc1)C(C)C)C(=O)NC(CC(=O)O)C(=O)CF (stereo not drawn) [z-VAD] (Cbz-Val-Ala-Asp-CH2F; configuration not given here)
effect of added reagent on multimer-induced CTL death [1]: blocked

CO[C@H]1[C@@H](OC)C[C@H](C)[C@@H](OC)C2=CC(=O)C=C(NC(=O)/C(C)=C/C=C\[C@H](OC)[C@@H](OC(N)=O)/C(C)=C/[C@@H]1C)C2=O [herbimycin A]
effect on FasL-mediated cytotoxicity (CD8-associated p56lck): little effect

SLFNTVATL [Mutant 3F]
target cell death, gag variant peptides (A2+ B cell targets): sensitising
